Experimental findings from ChEMBL document CHEMBL5260845, “Flavone-based arylamides as potential anticancers: Design, synthesis and in vitro cell-based/cell-free evaluations” (2020) are described below.

Activity calls are given as the source filed them. The calls are words filed in the database; no cut-off is given here.

The subject of one assay is DU-145. As to the kind of experiment: Antiproliferative activity against human DU-145 cells assessed as inhibition of cell growth at 10 uM by SRB assay relative to control. The format is functional. (Sulforhodamine B stains cellular protein and so reports cell mass.)
The next assay concerns Hs-578T. As to the kind of experiment: Antiproliferative activity against human Hs-578T cells assessed as inhibition of cell growth at 10 uM by SRB assay. The format is functional, cell-based.
In the next assay the test system is PC-3. As to the kind of experiment: Antiproliferative activity against human PC-3 cells assessed as inhibition of cell growth at 10 uM by SRB assay. The class given is functional, cell-based.
For a further assay, the system named is HOP-92. As to the kind of experiment: Antiproliferative activity against human HOP-92 cells assessed as cell growth inhibition at 10 uM by SRB assay. The format is functional, cell-based.
The test system of the next assay is CCRF-CEM. As to the kind of experiment: Antiproliferative activity against human CCRF-CEM cells assessed as cell growth inhibition at 10 uM by SRB assay. The class given is functional, cell-based.
The subject of a further assay is RPMI-8226. As to the kind of experiment: Antiproliferative activity against human RPMI-8226 cells assessed as cell growth inhibition at 10 uM by SRB assay. The class given is functional, cell-based.
Another assay concerns EKVX. As to the kind of experiment: Antiproliferative activity against human EKVX cells assessed as cell growth inhibition at 10 uM by SRB assay. The class given is functional.
For the next assay, the system named is SR. As to the kind of experiment: Antiproliferative activity against human SR cells assessed as cell growth inhibition at 10 uM by SRB assay. The format is functional, cell-based.
Another assay concerns NCI-H23. As to the kind of experiment: Antiproliferative activity against human NCI-H23 cells assessed as cell growth inhibition at 10 uM by SRB assay. The class given is functional.
A further assay concerns NCI-H522. As to the kind of experiment: Antiproliferative activity against human NCI-H522 cells assessed as cell growth inhibition at 10 uM by SRB assay. The format is functional, cell-based.
The subject of another assay is HL-60. The assay can be described thus: Antiproliferative activity against human HL-60 cells assessed as cell growth inhibition at 10 uM by SRB assay. The class given is functional, cell-based.
A further assay deals with UO-31. The assay can be described thus: Antiproliferative activity against human UO-31 cells assessed as inhibition of cell growth at 10 uM by SRB assay relative to control. The format is functional.
The next assay relates to NCI-H226. The assay can be described thus: Antiproliferative activity against human NCI-H226 cells assessed as cell growth inhibition at 10 uM by SRB assay. The format is functional.
The next assay concerns K562. The assay can be described thus: Antiproliferative activity against human K562 cells assessed as cell growth inhibition at 10 uM by SRB assay. The format is functional, cell-based.
The subject of the next assay is SF-295. The assay can be described thus: Antiproliferative activity against human SF-295 cells assessed as cell growth inhibition at 10 uM by SRB assay. The format is functional, cell-based.
For a further assay, the system named is MOLT-4. The assay can be described thus: Antiproliferative activity against human MOLT-4 cells assessed as cell growth inhibition at 10 uM by SRB assay. The format is functional, cell-based.

In the case of `COc1cc2oc(-c3ccc(NC(=O)c4ccccc4Br)cc3)cc(=O)c2c(OC)c1OC`, the inhibition – broadly, how much of the control response was suppressed – at 10 µM in the assay with DU-145 was 29.6%; in the assay on EKVX, less than 50%; with NCI-H23 it was less than 50%; in the assay on NCI-H226, less than 50%. For the same compound, the inhibition entry in the assay on Hs-578T, in the assay on PC-3, with HOP-92, with CCRF-CEM, in the assay with RPMI-8226 and with SR was “Active” in each case. Moreover, the inhibition result in the assay on NCI-H522, with HL-60, in the assay with UO-31, in the assay on K562, in the assay on SF-295 and in the assay on MOLT-4 was “Active” in each case.
